Molecules are shown by their SMILES.

The results in this text go back to patent publication US10988459B2 (priority 2015, dated 2021).

The test has as its target human RIP1 kinase domain (2-375) (Homo sapiens (Human), UniProt Q13546). In words: biochemical. Type of test: biochemical. Particulars: tight-binding apparent inhibition constant; human RIP1 kinase domain (2-375) 50 nM, 50 uM ATP, 2 hours; read-out: Ki. The gist of the method:
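50 nM purified kinase domain from baculovirus-infected insect cells, incubated 2 h with compound in 50 mM Hepes pH 7.5, 30 mM MgCl2, 1 mM DTT, 50 uM ATP, 0.002% Brij-35, 0.5% DMSO. ADP formation read by Transcreener FP at 633 nm excitation. Ki^app fitted with the Morrison tight-binding equation.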

human RIP1 kinase domain (2-375), sequence (Q13546 2-375): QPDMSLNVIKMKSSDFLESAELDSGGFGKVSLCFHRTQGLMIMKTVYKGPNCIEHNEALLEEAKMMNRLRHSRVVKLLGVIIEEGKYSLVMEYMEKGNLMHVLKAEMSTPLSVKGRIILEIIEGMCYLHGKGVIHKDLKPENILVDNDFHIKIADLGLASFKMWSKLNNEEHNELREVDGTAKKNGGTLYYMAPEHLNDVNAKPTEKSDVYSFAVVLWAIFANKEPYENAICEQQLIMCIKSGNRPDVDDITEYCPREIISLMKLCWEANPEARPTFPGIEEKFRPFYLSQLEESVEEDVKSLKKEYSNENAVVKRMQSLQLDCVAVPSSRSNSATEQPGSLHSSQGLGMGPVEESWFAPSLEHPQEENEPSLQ

In the case of `O=C(N[C@H]1COc2cc(F)cc(F)c2NC1=O)c1ncc2c(n1)C1(CCCC1)OC2` [Example 481, N-[(3S)-6,8-difluoro-4-oxo-3,5-dihydro-2H-1,5-benzoxazepin-3-yl]spiro[5H-furo[3,4-d]pyrimidine-7,1′-cyclopentane]-2-carboxamide], the Ki was 4.9 nM.

In the case of `CN1C(=O)[C@@H](NC(=O)c2ncc3c(n2)C2(CCCC2)OC3)COc2ccccc21` [Example 482], the Ki was found to be 5.7 nM.

As for `Cc1cc2n(n1)CC[C@H](NC(=O)c1ncn(C[C@H]3C[C@H](C(F)(F)F)C3)n1)C(=O)N2C` [Example 483], the Ki was found to be 110 nM.

In the case of `Cc1cc2n(n1)CC[C@H](NC(=O)c1nnc(Cc3ccc(F)cc3)[nH]1)C(=O)N2C` [Example 484, 5-[(4-fluorophenyl)methyl]-N-(6S)-2,4-dimethyl-5-oxo-7,8-dihydro-6H-pyrazolo[1,5-a][1,3]diazepin-6-yl-4H-1,2,4-triazole-3-carboxamide], the Ki came to 82 nM.

Regarding `CN1C(=O)[C@@H](NC(=O)c2ncc3cnn(C4CCCC4)c3n2)COc2ccccc21` [Example 485, 1-cyclopentyl-N-[(3S)-5-methyl-4-oxo-2,3-dihydro-1,5-benzoxazepin-3-yl]pyrazolo[3,4-d]pyrimidine-6-carboxamide], the Ki was determined as 4.2 nM.

`Cc1cc2n(n1)CC[C@H](NC(=O)c1ncc3c(n1)C(C)(CC(F)(F)F)OC3)C(=O)N2C` (stereo partly drawn) [Example 487, 7-methyl-N-[(6S)-2,4-dimethyl-5-oxo-7,8-dihydro-6H-pyrazolo[1,5-a][1,3]diazepin-6-yl]-7-(2,2,2-trifluoroethyl)-5H-furo[3,4-d]pyrimidine-2-carboxamide]: the Ki turned out to be 370 nM.

As to `CCC(C)(O)c1ccnc(C(=O)N[C@H]2COc3ccccc3N(C)C2=O)c1` (stereo partly drawn) [Example 488, 4-(1-hydroxy-1-methyl-propyl)-N-[(3S)-5-methyl-4-oxo-2,3-dihydro-1,5-benzoxazepin-3-yl]pyridine-2-carboxamide], the Ki is 1800 nM.

Consider `CN1C(=O)[C@@H](NC(=O)c2cc3c(cn2)COC32CCCOC2)COc2ccccc21` (stereo partly drawn) [Example 489, N-[(3S)-5-methyl-4-oxo-2,3-dihydro-1,5-benzoxazepin-3-yl]spiro[3H-furo[3,4-c]pyridine-1,3′-tetrahydropyran]-6-carboxamide], for which the Ki came to 94 nM.

As for `Cc1nn2c(c1C)N(C)C(=O)[C@@H](NC(=O)c1nnc(Cc3cccc(F)c3F)[nH]1)CC2` [Example 490, 5-[(2,3-difluorophenyl)methyl]-N-(6S)-2,3,4-trimethyl-5-oxo-7,8-dihydro-6H-pyrazolo[1,5-a][1,3]diazepin-6-yl-4H-1,2,4-triazole-3-carboxamide], the Ki worked out at 40 nM.

In the case of `Cc1cc2n(n1)CC[C@H](NC(=O)c1ncn(C[C@H]3C[C@@H](C(F)(F)F)C3)n1)C(=O)N2C` [Example 492], the Ki was found to be 180 nM.

For `CN1C(=O)[C@@H](NC(=O)c2ncn(C[C@H]3C[C@@H](C(F)(F)F)C3)n2)CCn2nccc21` [Example 493], the Ki amounted to 92 nM.

As for `CN1C(=O)[C@@H](NC(=O)c2ncn(C[C@H]3C[C@H](C(F)(F)F)C3)n2)CCn2nccc21` [Example 494], the Ki came out at 110 nM.

Regarding `Cc1cc2n(n1)CC[C@H](NC(=O)c1ncn(CC3(C)CCCC3)n1)C(=O)N2C` [Example 495, 1-[(1-methylcyclopentyl)methyl]-N-(6S)-2,4-dimethyl-5-oxo-7,8-dihydro-6H-pyrazolo[1,5-a][1,3]diazepin-6-yl-1,2,4-triazole-3-carboxamide], the Ki was determined as 130 nM.

Take `CN1C(=O)[C@@H](NC(=O)c2ncn(C[C@H]3C[C@@H](C)C3)n2)CCn2nccc21` [Example 496, N—((S)-4-methyl-5-oxo-5,6,7,8-tetrahydro-4H-pyrazolo[1,5-a][1,3]diazepin-6-yl)-1-(((1S,3R)-3-methylcyclobutyl)methyl)-1H-1,2,4-triazole-3-carboxamide]: the Ki turned out to be 52 nM.

With `CN1C(=O)[C@@H](NC(=O)c2ncn(C[C@H]3C[C@H](C)C3)n2)CCn2nccc21` [Example 497, N—((S)-4-methyl-5-oxo-5,6,7,8-tetrahydro-4H-pyrazolo[1,5-a][1,3]diazepin-6-yl)-1-(((1R,3S)-3-methylcyclobutyl)methyl)-1H-1,2,4-triazole-3-carboxamide], the Ki worked out at 41 nM.

In the case of `Cc1cc2n(n1)CC[C@H](NC(=O)c1ncn(C[C@H]3C[C@H](C)C3)n1)C(=O)N2C` [Example 498, N—((S)-2,4-dimethyl-5-oxo-5,6,7,8-tetrahydro-4H-pyrazolo[1,5-a][1,3]diazepin-6-yl)-1-(((1S,3R)-3-methylcyclobutyl)methyl)-1H-1,2,4-triazole-3-carboxamide], the Ki came to 400 nM.

As for `Cc1cc2n(n1)CC[C@H](NC(=O)c1ncn(C[C@H]3C[C@@H](C)C3)n1)C(=O)N2C` [Example 499, N—((S)-2,4-dimethyl-5-oxo-5,6,7,8-tetrahydro-4H-pyrazolo[1,5-a][1,3]diazepin-6-yl)-1-(((1R,3S)-3-methylcyclobutyl)methyl)-1H-1,2,4-triazole-3-carboxamide], the Ki turned out to be 870 nM.

On to `CC[C@H]1C[C@@H](Cn2cnc(C(=O)N[C@H]3CCn4nc(C)cc4N(C)C3=O)n2)C1` [Example 500, N—((S)-2,4-dimethyl-5-oxo-5,6,7,8-tetrahydro-4H-pyrazolo[1,5-a][1,3]diazepin-6-yl)-1-(((1R,3R)-3-ethylcyclobutyl)methyl)-1H-1,2,4-triazole-3-carboxamide], for which the Ki amounted to 36 nM.

With `CC[C@H]1C[C@H](Cn2cnc(C(=O)N[C@H]3CCn4nc(C)cc4N(C)C3=O)n2)C1` [Example 501, N—((S)-2,4-dimethyl-5-oxo-5,6,7,8-tetrahydro-4H-pyrazolo[1,5-a][1,3]diazepin-6-yl)-1-(((1S,3S)-3-ethylcyclobutyl)methyl)-1H-1,2,4-triazole-3-carboxamide], the Ki worked out at 67 nM.

Turning to `CC[C@H]1C[C@@H](Cn2cnc(C(=O)N[C@H]3CCn4nccc4N(C)C3=O)n2)C1` [Example 502, N—((S)-4-methyl-5-oxo-5,6,7,8-tetrahydro-4H-pyrazolo[1,5-a][1,3]diazepin-6-yl)-1-(((1R,3R)-3-ethylcyclobutyl)methyl)-1H-1,2,4-triazole-3-carboxamide], the Ki came to 27 nM.

`CC[C@H]1C[C@H](Cn2cnc(C(=O)N[C@H]3CCn4nccc4N(C)C3=O)n2)C1` [Example 503, N—((S)-4-methyl-5-oxo-5,6,7,8-tetrahydro-4H-pyrazolo[1,5-a][1,3]diazepin-6-yl)-1-(((1S,3 S)-3-ethylcyclobutyl)methyl)-1H-1,2,4-triazole-3-carboxamide]: the Ki came out at 23 nM.

Consider `Cc1ncn2c1N(C)C(=O)[C@H](NC(=O)c1ncn(Cc3cc(F)ccc3F)n1)CC2` [Example 504, 1-[(2,5-difluorophenyl)methyl]-N-(3R)-1,9-dimethyl-2-oxo-4,5-dihydro-3H-imidazo[1,5-a][1,3]diazepin-3-yl-1,2,4-triazole-3-carboxamide], for which the Ki amounted to 50 nM.

Turning to `Cc1ncn2c1N(C)C(=O)[C@H](NC(=O)c1ncn(Cc3ccccc3)n1)CC2` [Example 505, 1-benzyl-N-(3R)-1,9-dimethyl-2-oxo-4,5-dihydro-3H-imidazo[1,5-a][1,3]diazepin-3-yl-1,2,4-triazole-3-carboxamide], the Ki amounted to 36 nM.

In the case of `CN1C(=O)[C@@H](NC(=O)c2ncn(Cc3cc(F)ccc3F)n2)CCn2ccnc21` [Example 506, 1-[(2,5-difluorophenyl)methyl]-N-[(7S)-9-methyl-8-oxo-6,7-dihydro-5H-imidazo[1,2-a][1,3]diazepin-7-yl]-1,2,4-triazole-3-carboxamide], the Ki worked out at 19 nM.

Consider `CN1C(=O)[C@H](NC(=O)c2ncn(Cc3cc(F)ccc3F)n2)CCn2cncc21` [Example 507, 1-[(2,5-difluorophenyl)methyl]-N-[(3R)-1-methyl-2-oxo-4,5-dihydro-3H-imidazo[1,5-a][1,3]diazepin-3-yl]-1,2,4-triazole-3-carboxamide], for which the Ki came to 26 nM.

For `CN1C(=O)[C@@H](NC(=O)c2ncc3c(n2)C2(CCOC2)OC3)COc2ccccc21` (stereo partly drawn) [Example 508, N-[(3S)-5-methyl-4-oxo-2,3-dihydro-1,5-benzoxazepin-3-yl]spiro[5H-furo[3,4-d]pyrimidine-7,3′-tetrahydrofuran]-2-carboxamide], the Ki was 90 nM.

Regarding `CN1C(=O)[C@@H](NC(=O)c2nccc(C3(O)CCCC3)n2)COc2ccccc21` [Example 509, 4-(1-hydroxycyclopentyl)-N-[(3S)-5-methyl-4-oxo-2,3-dihydro-1,5-benzoxazepin-3-yl]pyrimidine-2-carboxamide], the Ki amounted to 440 nM.

In the case of `CN1C(=O)[C@@H](NC(=O)c2ncc3c(n2)C2(CCOCC2)OC3)COc2ccccc21` [Example 510], the Ki worked out at 330 nM.

With `CN1C(=O)[C@@H](NC(=O)c2ncc3c(n2)C2(CCCOC2)OC3)COc2ccccc21` (stereo partly drawn) [Example 511, N-[(3S)-5-methyl-4-oxo-2,3-dihydro-1,5-benzoxazepin-3-yl]spiro[5H-furo[3,4-d]pyrimidine-7,3′-tetrahydropyran]-2-carboxamide], the Ki was found to be 83 nM.

For `Cc1cc2n(n1)CC[C@H](NC(=O)c1ncc3c(n1)C1(CCOCC1)OC3)C(=O)N2C` [Example 512, N-[(6S)-2,4-dimethyl-5-oxo-7,8-dihydro-6H-pyrazolo[1,5-a][1,3]diazepin-6-yl]spiro[5H-furo[3,4-d]pyrimidine-7,4′-tetrahydropyran]-2-carboxamide], the Ki turned out to be 840 nM.

As for `Cc1cc2n(n1)CC[C@H](NC(=O)c1nnc(Cc3cccc(F)c3F)[nH]1)C(=O)N2C` [Example 513, 5-[(2,3-difluorophenyl)methyl]-N-(6S)-2,4-dimethyl-5-oxo-7,8-dihydro-6H-pyrazolo[1,5-a][1,3]diazepin-6-yl-4H-1,2,4-triazole-3-carboxamide], the Ki was found to be 29 nM.
